In patent US20110158908A1, “CYCLOSPORIN A-BINDING PROTEIN” (Sapporo Medical University, priority 2007, published 2011):

Tests used:
[1] = system: CSABP gene expression in MH14 cells; assay: Effect of anti-methylating agent on gene expression in MH14 cells (RT-PCR); assay type: cell-based, human; details: MH14 cells, 0.1, 0.5, 1.0 μM, 4 days
Method: 10^5 cells/well of MH14 cells (liver cancer cell line) were precultured in a 6 well plate with MH14 cell culture medium for 24 hours, and 5-aza-2′-deoxycytidine (Sigma) was then added thereto. Subsequently, medium exchange was carried out every 24 hours with a medium to which the methylation inhibitor had been added, and the cells were collected after 4 days. The amount of 5-aza-2′-deoxycytidine added was 0, 0.1, 0.5, and 1.0 μM. Total RNA was recovered from the cells thus collected in accordance with a standard method using an RNeasy kit (Qiagen, Cat. 74104). This total RNA was subjected to a reverse transcription reaction in accordance with a standard method using a Transcriptor First Strand cDNA Synthesis Kit (Roche, Cat. 04379012001), and the cDNA thus obtained was used as a template. The primer employed the above-mentioned CSABP primer (SEQ ID Nos: 5 and 6), and a PCR reaction was carried out in a Gotaq® PCR system (Promega) at 95° C., 5 minutes×1 cycle, 95° C., 0.5 minutes, 55° C., 0.5 minutes, 72° C., 2.5 minutes×35 cycles, 72° C., 7 minutes×1 cycle. As a positive control, a reaction was carried out in the same manner using the RASSF1A primers RASSF1A transcript variant D 391 to 415 forward primer: 5′-[…]-3′ (SEQ ID No: 38) and RASSF1A transcript variant D 635 to 660 reverse primer: 5′-[…]-3′ (SEQ ID No: 39), which is a gene for which a relationship between expression and DNA methylation in a promoter region has been shown by Cui X et al., Hum Pathol. 2006; 37 (3): 298-311. As an internal control, a reaction was carried out in the same manner using the above-mentioned G6PDH primer (SEQ ID Nos: 20 and 21).

[2] = biological target: T1, recombinant full length CSABP protein (CSABP-FL) (Homo sapiens, UniProt Q9H6S0, S652N/T565S); assay: Molecular association with CSABP by SPR (Biacore 3000); assay type: binding; details: read-out: dissociation constant KD with CSABP
T1 construct: pET-CSABP-FL and pET-CSABP-C (FL=full length, C=C terminal region (CSABP ORF: 193rd to 1430th amino acids)); made in house; host or cells: E. coli BL21 (DE3)
T1 sequence (Q9H6S0 1-1430 T565S/S652N): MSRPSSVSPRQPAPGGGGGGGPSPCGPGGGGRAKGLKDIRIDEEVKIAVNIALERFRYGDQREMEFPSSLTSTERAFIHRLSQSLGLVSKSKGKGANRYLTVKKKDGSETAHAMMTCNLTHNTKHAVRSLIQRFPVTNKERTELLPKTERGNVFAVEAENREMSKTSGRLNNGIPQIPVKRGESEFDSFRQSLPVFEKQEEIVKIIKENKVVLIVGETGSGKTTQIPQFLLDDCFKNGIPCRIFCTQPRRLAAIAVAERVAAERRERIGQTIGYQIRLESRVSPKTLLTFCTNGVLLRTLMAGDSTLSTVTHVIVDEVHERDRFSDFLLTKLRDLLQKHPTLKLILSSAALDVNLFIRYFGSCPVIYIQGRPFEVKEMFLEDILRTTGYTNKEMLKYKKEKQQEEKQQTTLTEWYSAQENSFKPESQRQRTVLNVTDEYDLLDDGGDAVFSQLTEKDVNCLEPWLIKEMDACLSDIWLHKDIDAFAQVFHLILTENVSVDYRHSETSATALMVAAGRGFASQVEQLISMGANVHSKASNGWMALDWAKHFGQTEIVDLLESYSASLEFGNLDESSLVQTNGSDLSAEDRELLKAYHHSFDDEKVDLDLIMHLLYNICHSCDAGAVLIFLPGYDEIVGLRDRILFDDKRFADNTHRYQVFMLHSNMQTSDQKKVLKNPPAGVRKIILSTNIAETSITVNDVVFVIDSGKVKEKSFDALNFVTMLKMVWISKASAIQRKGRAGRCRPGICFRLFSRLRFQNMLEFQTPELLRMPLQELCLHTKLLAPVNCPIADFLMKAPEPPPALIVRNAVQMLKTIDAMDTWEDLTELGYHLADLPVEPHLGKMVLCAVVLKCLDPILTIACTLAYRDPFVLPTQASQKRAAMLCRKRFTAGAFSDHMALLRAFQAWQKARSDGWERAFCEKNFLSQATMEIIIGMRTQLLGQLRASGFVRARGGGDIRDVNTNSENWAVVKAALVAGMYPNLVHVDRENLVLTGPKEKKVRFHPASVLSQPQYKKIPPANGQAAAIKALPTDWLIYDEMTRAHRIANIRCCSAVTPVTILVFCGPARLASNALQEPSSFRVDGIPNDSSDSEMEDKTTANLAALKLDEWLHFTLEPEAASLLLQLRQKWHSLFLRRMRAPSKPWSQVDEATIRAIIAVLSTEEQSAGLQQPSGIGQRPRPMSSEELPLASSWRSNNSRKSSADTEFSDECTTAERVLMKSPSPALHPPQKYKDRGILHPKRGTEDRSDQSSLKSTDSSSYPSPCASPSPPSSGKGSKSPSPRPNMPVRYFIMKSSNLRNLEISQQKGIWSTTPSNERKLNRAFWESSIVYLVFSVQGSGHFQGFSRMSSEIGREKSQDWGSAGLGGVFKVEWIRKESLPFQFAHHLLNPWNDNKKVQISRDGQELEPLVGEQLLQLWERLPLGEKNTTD
Method: Molecular association between recombinant full length CSABP protein (CSABP-FL) and CsA was evaluated by an SPR (surface plasmon resonance) method. SPR measurement employed Biacore 3000 (Biacore). A purified recombinant CSABP protein was immobilized on Biacore chip CM5 by an amine coupling method (amount immobilized about 10000).

[3] = system: CSABP expression in normal human liver cells; assay: Induction of CSABP expression by inflammatory cytokine in normal human liver cells (real time PCR); assay type: cell-based; details: 8 hours
Method: Normal human liver cells (Primary Human Liver Hepatocyte Cells, DS PHARMA BIOMEDICAL CO., LTD., Cat. No. ABI-3716) were cultured in a 6 well plate at a density of 2×10^5 cells/well, and human IL-1β, TNFα, or IL-6 (all from BioSource) was added thereto to give a final concentration in the well of 1 pg/mL, 100 pg/mL, or 1 ng/mL respectively. 8 hours after the addition, the cells were collected, and expression of CSABP within the cells was quantitatively determined by real time PCR in the same manner as in Example 5 (2).

Nc1ncn([C@H]2C[C@H](O)[C@@H](CO)O2)c(=O)n1 [5-aza-2′-deoxycytidine]
amount of expression of the CSABP gene [1]: increase
cytotoxicity [1]: no cytotoxicity was observed
expression of RASSF1A (positive control gene) [1]: increased

C=CC[C@@H]1/C=C(\C)C[C@H](C)C[C@H](OC)[C@H]2O[C@@](O)(C(=O)C(=O)N3CCCC[C@H]3C(=O)O[C@H](/C(C)=C/[C@@H]3CC[C@@H](O)[C@H](OC)C3)[C@H](C)[C@@H](O)CC1=O)[C@H](C)C[C@@H]2OC [FK506]
Kd [2]: 2500 nM

IL-1β: human inflammatory cytokine (BioSource)
amount of expression of CSABP compared with the control ([3]; 1 pg/mL): some increase

IL-6: human inflammatory cytokine (BioSource)
amount of expression of CSABP compared with the control ([3]; 1 ng/mL): some increase

TNF-α
amount of expression of CSABP compared with the control ([3]; 100 pg/mL): about 1.8 times
